Patent publication US4863874A, “Method for detecting phosphatidylinositol through binding to Concanavalin A” (The United States of America as represented by the …, priority 1986, dated 1989)
Read-outs that look alike come from different tables or passages of the source.

How the values were obtained:
[1] = system: mouse spleen lymphocytes; assay: Suppression of Con A-induced lymphocyte mitogenesis ([3H]-thymidine); assay type: cell-based; settings: for inhibition of Con A-induced lymphocyte mitogenesis: added simultaneously with Con A, in words; for DPM × 10^-3 ([3H]-thymidine, DNA synthesis): geometric mean of quadruplicate ±1 S E, no inhibitor 124 ± 10; for inhibition at 40000 µM: Mus musculus, Lymphocyte, read-out: % SUPPRESSION
Excerpt: Mitogenic determination were made on 12 weeks old male C3 HeB/FeJ mouse (Jackson Laboratory, Bar Harbour, ME) spleen cells. The method used for cell preparation and assay of mitogenic activity is described elsewhere (Richardson, E. C., and Alving, C. R. (1984) Rev. Infect. Dis., Vol. 6, pages 532-534). Briefly spleen cells were extracted into HSB (HEM Research Inc., Rockville, MD), purified on a Ficoll-Hypaque solution, washed twice with HBS and suspended in a medium containing Eagles MEM with Earle's salts (GIBCO, Grand Island, NY), penicillin 100 μg/ml and streptomycin 100 μg/ml (GIBCO), 5×10^-5 M 2-mercaptoethanol (Matheson, Coleman and Bell, Norwood, OH) and 5% fetal bovine serum (MBA, Walkersville, MD). Cultures containing 2×10^5 viable cells/0.2 ml were prepared in 96 wells microtiter plates (Linbro Chemical Co., New Haven, CT) containing Con A ([…] Con A protein/ml culture) with either 40 μmoles/ml α-MM or myo-inositol. Cultures were incubated at 37° C. in 5% CO2 and air for 48 hours. Four hours prior to harvesting, the cells were pulsed with 1 μCi of [^3 H]-thymidine, harvested on glass fiber filters with a cell harvester and the radioactivity determined by liquid scintillation.
Cultures containing 2×10^5 mouse spleen lymphocytes in 0.2 ml medium were stimulated with 6 μg Con A/ml in the presence of 40 μmoles/ml of α-MM or myo-inositol and incubated for 48 hours. DNA synthesis was determined by pulsing the cultures 4 hours prior to harvesting with 1 μCi of [^3 H]-thymidine. The values represent the geometric mean of quadruplicate cultures ±1 S E.

[2] = molecular target: T1, Con A (Canavalia ensiformis, UniProt P02866); assay: Binding to Con A by equilibrium dialysis, Scatchard plot
T1 construct: purchased Sigma Chemical Co., St. Louis, MO
Excerpt: Equilibrium dialysis (microtechnique), as described by Karush, et al. (Karush, F., Karush, S. S. and Eisen, H. N. (1971) in Methods of Immunology and Immunochemistry (C. A. Williams, and M. W. Chase, Edition), Vol. III, pages 383-394, Academic Press, NY) was used to determine the binding of Con A to α-mannose, α-L-fucose, or myo-inositol. The data were plotted according to the method of Scatchard (Scatchard, G. (1949) Ann. N.Y. Acad. Sci., Vol. 51, pages 660-672).
The binding of Con A to α-D-[^3 H]-mannose or myo-[^3 H]-inositol in 0.01M bicarbonate-saline, pH 7.0, at room temperature was investigated by equilibrium dialysis. […] The ratio of the molar concentration of the bound sugar to that of protein is represented by r, c is the molar concentration of free sugar, n is the number of binding sites and K, the binding constant. A molecular weight of 108,000 for Con A was used in the calculations since Con A is a tetramer at neutral pH and the monomer mol wt. is 27,000.

[3] = molecular target: T1, Con A; assay: Inhibition of Con A binding to liposomes
Protocol: Similar incubations as those described in FIG. 1 were set up with liposomes and Con A. α-MM (FIG. 2a) or myo-inositol (FIG. 2b) were used as inhibitors in the concentrations indicated.
Liposomes containing PL (DMPC, or DMPC/PI) and cholesterol in molar ratios 2/1.5 were used throughout. When PI was included in the liposomes, it was in a 1/1 molar ratio with DMPC. Preparation of liposomes (multilamellar vesicles) is reported in detail (Alving, C. R., Shichijo, S., and Mattsby-Baltzer, I. (1984) in Liposome Technology, (G. Gregoriadis, edition), Vol. II, pages 157-175, CRC, Boca Raton, FL). Briefly, lipids (PLs and cholesterol) were dried in vacuo in pear-shaped flasks and dispersed in a small volume of 0.15M NaCl with the aid of a few acid washed glass beads. The final PL concentration in the aqueous dispersion was 10 mM.
(§1) Studies on the binding of Con A to liposomes were performed as follows: Con A and inhibitors (if present) in the concentrations indicated in the individual figures were incubated with 100 μl of liposomes in a final volume of 1.0 ml of buffer for 45 minutes at 25° C. After incubation, liposomes were washed twice with 2 ml portions of 0.9% NaCl-0.01M NaHCO3 (pH 7.0) and collected by centrifugation at 140,000 g for 5 minutes. Bicarbonate-saline was the buffer used throughout for solution, washing and dilutions. Specific protein binding to liposomes was measured by a Lowry assay adapted to measurement of proteins on liposomes as described previously (Alving, C. R., and Kinsky, S. C. (1971) Immunochemistry, Vol. 8, pages 325-343).
Con A binding to mannose is widely accepted as the major binding specificity for Con A, and inhibition of Con A by α-MM is often used as a criterion for specificity of binding (Lis, H. and Sharon, N. (1973) Ann. Rev. Biochem., Vol. 42, pages 541-574). […] Since Con A binding was increased by the presence of PI in the liposomes we tried to inhibit it by adding increasing concentrations of myo-inositol as a soluble inhibitor. […] Therefore we conclude that the binding of Con A to PI is specific and probably involves the inositol moiety of PI.

[4] = molecular target: T1, Con A; assay: Inhibition of Con A binding to liposomes by mixtures of α-MM and myo-inositol; settings: for relative inhibitory potency, PI present in the liposomes: liposomes containing PI; for type of inhibition on simultaneous addition of both inhibitors: simultaneous addition of both inhibitors to Con A and liposomes
Protocol: Similar incubations as those described in FIG. 1 were set up with liposomes and Con A. Myo-inositol and α-MM were mixed together as inhibitors in the concentrations indicated.
as §1
In order to characterize further the binding of Con A to liposomal PLs, and especially to PI, we mixed varying concentrations of α-MM with varrying concentrations of myo-inositol. Our reasoning was that if α-MM and myo-inositol complete for the same binding site we would record similar inhibitions to those shown in FIG. 2. […] The opposite occurred with liposomes lacking PI.

[5] = myo-inositol and α-MM simultaneously used, FIG. 4
[6] = 6 μg Con A/ml, 40 μmoles/ml inhibitor, 48 hours

C[C@@H]1O[C@@H](O)[C@@H](O)[C@H](O)[C@@H]1O [α-L-fucose]
inhibition of Con A-induced lymphocyte mitogenesis [1]: No inhibition | binding to Con A ([2]; 0.01M bicarbonate-saline, pH 7.0, room temperature): No binding could be detected | inhibition of Con A binding to liposomes containing PI ([3]; increasing concentrations, liposomes containing PI): no inhibition was observed | inhibition of Con A binding to liposomes lacking PI ([3]; increasing concentrations, liposomes lacking PI): no inhibition was observed

O[C@H]1[C@H](O)[C@@H](O)[C@H](O)[C@@H](O)[C@H]1O [myo-inositol]
relative inhibitory potency, PI present in the liposomes [4, 5]: the more potent inhibitor | type of inhibition on simultaneous addition of both inhibitors [4]: non-competitive | DPM × 10^-3 ([3H]-thymidine, DNA synthesis) [1, 6]: 86 ± 8 DPM × 10^-3 | inhibition at 40000 µM [1, 6]: 31% | inhibition of Con A-induced lymphocyte mitogenesis [1]: significant inhibition was observed | Kd [2]: 0.769 mM | IC50 [3]: 10 mM

CO[C@H]1O[C@H](CO)[C@@H](O)[C@H](O)[C@@H]1O [α-MM, α-methyl mannoside]
relative inhibitory potency, PI present in the liposomes [4, 5]: could not provide similar inhibition | relative inhibitory potency, PI absent from liposomes ([4]; myo-inositol and α-MM simultaneously used, liposomes lacking PI, FIG. 4): a more potent inhibitor than inositol | type of inhibition on simultaneous addition of both inhibitors [4]: non-competitive | DPM × 10^-3 ([3H]-thymidine, DNA synthesis) [1, 6]: 1.3 ± 0.2 DPM × 10^-3 | inhibition at 40000 µM ([1]; 48 h): 99% | inhibition of Con A-induced lymphocyte mitogenesis [1]: more effective inhibitor than myo-inositol | inhibition at 1000 µM ([3]; read-out: inhibition of Con A binding to DMPC liposomes): ~50% | inhibition at 1000 µM ([3]; read-out: inhibition of Con A binding to DMPC/PI liposomes): ~50%
